Data taken from the NIST ThermoML archive (doi:10.1021/je060092t).

Experiment: cn = amount concentration of the nth substance listed, in mol/dm3
Conditions: Liquid, Taylor dispersion method

| SMILES | binary diffusion coefficient (298.15 K, c1 = 0.1) [m2/s] | binary diffusion coefficient (298.15 K, c1 = 0.002) [m2/s] | binary diffusion coefficient (298.15 K, c1 = 0.004) [m2/s] | binary diffusion coefficient (298.15 K, c1 = 0.006) [m2/s] | binary diffusion coefficient (298.15 K, c1 = 0.008) [m2/s] | binary diffusion coefficient (303.15 K, c1 = 0.002) [m2/s] | binary diffusion coefficient (303.15 K, c1 = 0.004) [m2/s] | binary diffusion coefficient (303.15 K, c1 = 0.006) [m2/s] | binary diffusion coefficient (303.15 K, c1 = 0.008) [m2/s] | binary diffusion coefficient (308.15 K, c1 = 0.002) [m2/s] | binary diffusion coefficient (308.15 K, c1 = 0.004) [m2/s] | binary diffusion coefficient (308.15 K, c1 = 0.006) [m2/s] | binary diffusion coefficient (308.15 K, c1 = 0.008) [m2/s] | binary diffusion coefficient (312.15 K, c1 = 0.002) [m2/s] | binary diffusion coefficient (312.15 K, c1 = 0.004) [m2/s] | binary diffusion coefficient (312.15 K, c1 = 0.006) [m2/s] | binary diffusion coefficient (312.15 K, c1 = 0.008) [m2/s] |
| --- | --- | --- | --- | --- | --- | --- | --- | --- | --- | --- | --- | --- | --- | --- | --- | --- | --- |
| OC[C@H]1O[C@@](CO)(O[C@H]2O[C@H](CO)[C@@H](O)[C@H](O)[C@H]2O)[C@@H](O)[C@@H]1O [D-sucrose] + O | 5.26e-10 | – | – | – | – | – | – | – | – | – | – | – | – | – | – | – | – |
| [Cl-].[K+] [potassium chloride] + O | 1.81e-09 | – | – | – | – | – | – | – | – | – | – | – | – | – | – | – | – |
| OC[C@H]1O[C@@H]2O[C@H]3[C@H](O)[C@@H](O)[C@@H](O[C@H]4[C@H](O)[C@@H](O)[C@@H](O[C@H]5[C@H](O)[C@@H](O)[C@@H](O[C@H]6[C@H](O)[C@@H](O)[C@@H](O[C@H]7[C@H](O)[C@@H](O)[C@@H](O[C@H]8[C@H](O)[C@@H](O)[C@@H](O[C@H]1[C@H](O)[C@H]2O)O[C@@H]8CO)O[C@@H]7CO)O[C@@H]6CO)O[C@@H]5CO)O[C@@H]4CO)O[C@@H]3CO [β-cyclodextrin] + O | – | 3.24e-10 | 3.23e-10 | 3.21e-10 | 3.18e-10 | 3.89e-10 | 3.88e-10 | 3.81e-10 | 3.78e-10 | 4.3e-10 | 4.28e-10 | 4.27e-10 | 4.23e-10 | 4.56e-10 | 4.54e-10 | 4.54e-10 | 4.53e-10 |
